Entries after “also recorded” stand apart in the source; their conditions may differ. Marks after values point to notes of the source that are not given here.
Tests used:
[1] = tested on: Human lung alveolar type II cells (A549); experiment: Cytochrome c translocation after cigarette smoke extract (CSE) treatment, cytochrome c ELISA; format: cell-based
Description: Smoke from 8 cigarettes was drawn slowly through 100 ml of serum free culture medium and the resulting suspension was filtered through 0.20 μm filter. The solution was considered as 100% cigarette smoke extract (CSE). Human lung alveolar type II cells (A549) were grown in 96 well plates for 48 hrs at a final concentration of 1.5×10^5 cells per well. The cells were then treated separately with either 100 nM Compound A or 1%, 2.5% and 5% CSE. In other sets, 100 nM Compound A was added along with 1%, 2.5% or 5% CSE. All incubations were done at 37° C. for 24 hrs. After 24 hr treatment, the cells were washed with 0-4° C. PBS three times. Measurement of cytochrome c that was translocated into the cytosol, a marker of cellular injury, was performed according to the instructions provided with a kit for cytochrome c ELISA assay.

[2] = tested on: cigarette smoke-exposed guinea pigs; experiment: Macrophage (monocyte) count in bronchoalveolar lavage fluid of cigarette smoke-exposed guinea pigs; format: in vivo, guinea pig
Text: (§1) Guinea pigs were exposed to cigarette smoke using a smoking system (INH06-CIG01A, M.I.P.S. Inc.). Each animal was placed in an exposure holder, and the holder was fixed in an exposure chamber. Cigarette smoke of 30 cigarettes per day (Peace®, Japan Tobacco Inc.) was drawn from a smoke generator into the exposure chamber, 5 days per week, for 25 days (Days 1 to 25). In a sham exposure group, the atmospheric air, instead of cigarette smoke, was drawn into the exposure chamber.
(§2) Aqueous solution of Compound A (13,14-dihydro-15-keto-16,16-difluoro-18(S)-methyl-PGE1) was vaporized using a pressurized nebulizer (LC Plus Nebulizer, Pari GmbH) and inhaled by the animals in a chamber of an inhalation system (SIS-A, Sibata Scientific Technology Ltd.) for 30 minutes from 1 hr before the cigarette smoke exposure.
After the measurement of pulmonary function, the animals were sacrificed by exsanguination under anesthesia and the thorax was opened. Five milliliters of saline were instilled into the lungs through a tracheal cannula, and the lavage fluid was recovered by gentle aspiration. This procedure was repeated and the recovered lavage fluid was combined (10 mL in total, bronchoalveolar lavage fluid, BALF). The number of macrophages (monocyte) in the BALF was counted.

[3] = tested on: cigarette smoke-exposed guinea pigs; experiment: Specific airway resistance (sRaw) in cigarette smoke-exposed guinea pigs; format: in vivo, guinea pig; settings: for Specific airway resistance (sRaw) Mean ± S.D.: 30 min from 1 hr before smoke exposure, Days 1 to 25, measured Day 26, n=7, control 2.154 ± 0.365, sham 1.131 ± 0.149
Text: as §1, §2
Specific airway resistance (sRaw) of conscious animals was measured by a double flow plethysmo-graph technique with a respiratory function measurement system (Pulmos-1, M.I.P.S Inc.) on Day 26.

[4] = tested on: cigarette smoke-exposed guinea pigs; experiment: Pulmonary function (RV, FEV100) in cigarette smoke-exposed guinea pigs; format: in vivo, guinea pig
Text: as §1, §2
After the sRaw measurements, animals were anesthetized with ketamine (60 mg/kg) and xylazine (8 mg/kg), and the trachea was cannulated. Pulmonary function was measured using a pulmonary function measurement system (Biosystem Manoeuvers, Buxco Electronics, Inc.). The parameters of measurement consisted of residual volume (RV) and forced expiratory volume at 100 msec (FEV100).

[5] = compared with the control group

Compound: CC[C@H](C)CC(F)(F)C(=O)CC[C@H]1[C@H](O)CC(=O)[C@@H]1CCCCCCC(=O)O [Compound A, 13,14-dihydro-15-keto-16,16-difluoro-18(S)-methyl-PGE1]
- Cytosolic cytochrome c, compound alone ([1]; 100 nM Compound A alone, no CSE, 24 hours): Neither 0.1% DMSO (B) (vehicle for Compound A) nor Compound A (C) alone significantly affected cytosolic cytochrome c
- Cytochrome c translocation induced by CSE ([1]; 100 nM Compound A with 1%, 2.5% and 5% CSE, 24 hrs, compared to DMSO control (P<0.05, P<002 and P<0.005)): protected against the cytochrome c translocation induced by CSE; also recorded: significantly decreased cytochrome c translocation
- Effect on increase in number of macrophages (monocyte) in BALF induced by cigarette smoke exposure [2, 5]: significantly inhibited the increase in number of macrophages (monocyte)
- Monocyte/Macrophage count in bronchoalveolar lavage fluid Mean ± S.D. ([2]; inhaled aqueous solution 1 μg/mL, n=7, control 14.42 ± 3.00, sham 4.52 ± 1.73): 10.35 ± 2.53* 10^2 cells/μL
- Effect on increase in sRaw induced by cigarette smoke exposure [3, 5]: significantly inhibited the increase in sRaw
- Specific airway resistance (sRaw) Mean ± S.D. ([3]; inhaled aqueous solution 1 μg/mL): 1.417 ± 0.226 cmH2O · sec
- Specific airway resistance (sRaw) Mean ± S.D. ([3]; inhaled aqueous solution 10 μg/mL): 1.383 ± 0.241 cmH2O · sec
- Effect on decrease in FEV100 induced by cigarette smoke exposure [4, 5]: significantly inhibited these changes
- Effect on increase in residual volume (RV) induced by cigarette smoke exposure [4, 5]: significantly inhibited these changes
- RV (residual volume) Mean ± S.D. ([4]; inhaled aqueous solution 1 μg/mL, n=7, control 5.44 ± 1.43, sham 2.75 ± 1.45): 3.45 ± 1.07 mL
- FEV100 (forced expiratory volume at 100 msec) Mean ± S.D. ([4]; inhaled aqueous solution 1 μg/mL, n=7, control 5.75 ± 3.29, sham 9.87 ± 1.17): 10.38 ± 1.08 mL

— patent publication US20070203228A1, “Method for treating chronic obstructive pulmonary disease” (SUCAMPO AG, priority 2006, published 2007)
